From patent US10577322B2, “5-methoxytryptophan and its derivatives and uses thereof” (National Health Research Institutes, priority 2015, dated 2020)

Tests used:
p300 HAT [1] = experiment: p300 HAT activity in lung tissues of mice; assay type: in vivo; conditions: 8-24 h after LPS, 5-MTP 23.4 mg/kg
Protocol: In addition, p300 HAT activity in lung tissues of mice (n=6 mice/group) at 8-24 h after LPS infusion with or without 5-MTP(23.4 mg/kg) was determined by an assay kit.

NF-κB = NF-κB promoter-luciferase assay in RAW264.7 cells; assay type: cell-based, mouse; conditions: LPS 8 h
Protocol: RAW264.7 macrophages were cotransfected with COX-2 promoter-luciferase, IL-6 promoter-luciferase constructs as previously described (Lee, G. L., et al.) or p5xNF-κB-luciferase (Stratagene) and pcDNA3.1-β-galactosidase plasmids using FuGENE 6 (Roche). After overnight transfection, the cells were incubated with or without LPS in the presence or absence of 5-MTP for 8 h. After treatment, cells were lysed, and luciferase activity was measured using an assay kit (Promega). β-galactosidase activity was used to normalize the data.
After pretreating RAW264.7 cells with different concentrations of 5-MTP for 30 min, cells were stimulated with LPS for 8 h. NF-κB promoter activity as measured by NF-κB promoter-luciferase assay.

ligated carotid arteries = experiment: Neointima formation model of carotid artery ligation; assay type: in vivo, mice; conditions: 100 mg/kg IP 3 times a week, four weeks after ligation
Protocol: Approximately 12-week-old male C57BL/6 wild-type mice ational Laboratory Animal Center, Taiwan) were subjected to a neointima formation model by ligating the left common carotid artery (LCCA). The Institutional. Animal Care and Use Committee of National Health Research Institutes, Taiwan approved all experimental procedures (#NHRI-IACUC-101144-A). Mice were anesthetized with tribromoethanol solution at a dose of 250 mg/kg by IP injection. After assessing the level of anesthesia by checking the pedal reflex, the LCCA was exposed through a midline incision in the neck. […] Following surgery, mice were treated with vehicle (PBS) or 100 mg/kg of 5-MTP (Sigma, M4001) by IP injection 3 times a week. 5-MTP was dissolved in 0.05 N HCl (made in PBS) first, pH adjusted to 7.4 by NaOH, and then a stock solution of 6.5 mg/mL was prepared with PBS. The stock solution was then sterilized by filtering through a 0.22 μm-filter before use. At indicated time points (4, 7, and 28 d after surgery), mice were anesthetized with tribromoethanol solution (500-750 mg/kg), perfused with saline, followed by 10% neutral-buffered-formalin. The contralateral control (right common carotid artery) and ligated LCCA were then carefully dissected, excised, and immersed in 10% formalin before processing and embedding in paraffin. […]

COX-2 [2] = experiment: COX-2 immunohistochemistry in lung tissues of LPS-treated mice; assay type: in vivo; conditions: LPS 60 mg/kg; 12 h, 16 h and 24 h
Protocol: Prior to immunohistochemical detection of COX-2, iNOS, Ly6g, or cleaved caspase-3 in lung sections, sections were deparaffinized with xylene, progressively rehydrated through graded alcohols. Antigen sites were retrieved by heating the sections on slides in pH 8 EDTA antigen. retrieval (Trilogy; Cell Marque Corporation) in electric pressure cooker for 15 min. […] All antibodies described hereafter were diluted in blocking buffer. Sections were incubated at room temperature for 2 h with primary antibody and then washed in PBST. The sections were incubated with primary antibody amplifier quanta (Thermo) for 10 minutes. After rinsing with PBST, the sections were incubated with HRP Polymer Quanto (Thermo) for 10 minutes and washed three times with PBST. COX-2, iNOS, Ly6g and cleaved caspase-3 were visualized by the addition of DAB Quanto Chromogen: Substrate for 3 minutes. Tissues were also counterstained with hematoxylin.
Moreover, paraffin-embedded sections were prepared from lungs of mice injected with 60 mg/kg LPS with or without saline or 5-MTP at 12 h, 16 h and 24 h. COX-2 and inducible nitric oxide synthase (iNOS) protein levels in lung tissues were determined by immunohistochemistry by staining with anti-COX-2 and anti-iNOS antibodies, respectively. The results are shown in FIGS. 6A-6B, in which scale bars represent 100 μm. […]

COX-2 [3] = experiment: LPS-induced COX-2 protein expression in RAW264.7 cells (immunoblot); assay type: cell-based, mouse; conditions: LPS 8 h
Protocol: Mouse RAW264.7 macrophages were from the American Type Culture Collection and cultured in DMEM containing 10% FBS. […] The duration of LPS (100 ng/ml) treatment varied depending on the experiment.
Cellular protein were resolved by 5% to 20% SDS-PAGE and transferred to nitrocellulose membranes and blotted with specific antibodies as previously described (Lee, G. L., et al.).
After pretreating mouse macrophage RAW264.7 cells with different concentrations of 5-MTP for 30 min, cells were stimulated with LPS for 8 h. Cell lysates were immunoblotted with antibodies for COX-2 or β-actin. In addition, RAW264.7 cells were transfected with COX-2 promoter-luciferase plasmid. After 24 h transfection, the cells were incubated with LPS for 8 h. Luciferase activity was measured.

NF-κB p65 = experiment: Phospho-p65 in peritoneal macrophage lysates (ELISA kit); assay type: cell-based, mouse; conditions: peritoneal macrophages, 5-MTP 50 μM
Protocol: Furthermore, after pretreating RAW264.7 cells with different concentrations of 5-MTP for 30 min, cells were stimulated with. LPS for 4 h. NF-κB p65, phospho-NF-κB p65 (p-p65) (Ser536) or β-actin was determined by immunoblotting with specific antibodies. Also, peritoneal macrophages were treated with LPS with or without 5-MTP (50 μM) for the indicated time. Phospho-p65 in the lysates was analyzed by an ELISA kit. The results are shown in FIG. 10D, in which the error bars denote mean ±SD (n=3). According to FIGS. 10C-10D, 5-MTP decreased LPS-induced phosphorylation of NF-κB p65 not only in RAW264.7 cells (FIG. 10C) but also in peritoneal macrophages (FIG. 10D).

p300 HAT [4] = experiment: p300 HAT activity in peritoneal macrophages; assay type: cell-based, mouse; conditions: LPS, 5-MTP 50 μM
Protocol: p300 HAT activity in peritoneal macrophages treated with LPS in the presence or absence of 5-MTP (50 μM) for the indicated time was measured with an p300 HAT activity assay kit.

SMILES: COc1ccc2[nH]cc(C[C@H](N)C(=O)O)c2c1 [5-MTP, 5-methoxytryptophan]
- p300 HAT activity in lung tissues (p300 HAT [1]): suppressed by 5-MTP
- NF-κB promoter activity (transactivation) (NF-κB): suppressed NF-κB transactivation in a concentration-dependent manner
- intima/media area ratio (ligated carotid arteries): 0.58±0.11
- intimal thickening (ligated carotid arteries): reduced
- COX-2 expression in lung tissues (COX-2 [2]): suppresses
- LPS-induced COX-2 protein expression (COX-2 [3]): blocked
- LPS-induced phosphorylation of NF-κB p65 (NF-κB p65): decreased
- p300 HAT activation (p300 HAT [4]): significantly blocked p300 HAT activation up to 24 h
